Reference: US20260242359A1, “IRHOM2 INHIBITORS AND USES THEREOF” (NEW YORK SOCIETY FOR THE RELIEF OF THE RUPTURED AND …, priority 2023, published 2026)

Test system: LPS-induced release of endogenous TNFα from human peripheral blood mononuclear cells (PBMCs)
Test: Example 13: ELISA-based TNFα release assay, LPS-induced, PBMCs from healthy donor
Format: cell-based
Settings: 10 μM final concentration, LPS 50 ng/ml, delta Buffer stimulated vs unstimulated = 100% inhibition; for inhibition at 10 µM: Homo sapiens, PBMC
Procedure: In the following study, ELISA-based TNFα release assay was performed to verify the inhibitory effects of Compounds 1, 2, 3, 4, 5, and 7 on LPS-induced release of endogenous TNFα from primary human material obtained from healthy donor using peripheral blood mononuclear cells (PBMCs). The ELISA-based TNFα release assay that was used in this example is described below.
In brief, on day 1, Nunc black MaxiSorp® 96-well plates (Thermo Fisher Scientific, USA) were coated overnight with 100 μl per well of mouse anti-human TNFα capture antibody (provided as part of the DuoSet ELISA kit) at 4 μg/ml TBS at 4° C. On day 2, the capture antibody solution was removed and MaxiSorp® plates were blocked with 300 μl per well of TBS, 1% BSA at room temperature for 3 hours. Meanwhile, 20,000 PBMCs from healthy donor (SciRhom GmbH, Germany) in 80 μl of normal growth medium were seeded in each well of Greiner CELLSTAR V-bottom 96-well plates (Thermo Fisher Scientific, USA) and pre-incubated with 20 μl per well of standard growth medium supplemented with Batimastat (BB94, Abcam, UK) at 50 μM as positive control (for a final concentration of 10 μM in the resulting 100 μl sample volume), compounds of the invention at 50 μM (for a final concentration of 10 μM in the resulting 100 μl sample volume) and in case of Buffer stimulated and unstimulated controls with DMSO (Carl Roth, Germany) at 50 μM (for a final concentration of 10 μM in the resulting 100 μl sample volume) at 37° C., 5% CO2 for 30 minutes. Subsequently, cells (except those for unstimulated controls) were stimulated with 20 μl per well of LPS (Sigma-Aldrich, USA) at 300 ng/ml growth medium for a final concentration of 50 ng/ml at 37° C., 5% CO2 for 2 hours. Afterwards, the 96-well plates were centrifuged to pellet cells. In parallel, blocking buffer was removed from the MaxiSorp® plates and plates were washed 4 times with 350 μl per well of TBS-T (Carl Roth, Germany) on a 96-head plate washer (Tecan Group, Switzerland). To avoid drying-up, 30 μl of TBS were added to each well of the MaxiSorp® plates immediately, followed by the transfer of 70 μl of cell-free supernatant per sample. Additionally, 100 μl of recombinant human TNFα protein (provided as part of the DuoSet ELISA kit) diluted in TBS at defined concentrations were added to the plate as standard references. Thereafter, 100 μl per well of biotinylated goat anti-human TNFα detection antibody (provided as part of the DuoSet ELISA kit) at 50 ng/ml TBS were added and, protected from direct light, plates were incubated at room temperature for 2 hours. After 4 times washing with 350 μl per well of TBS-T (Carl Roth, Germany) on a 96-head plate washer (Tecan Group, Switzerland) and careful removal of all buffer traces after the fourth cycle, 100 μl of streptavidin-AP (R&D Systems, USA) diluted 1:10,000 in TBS were added to each well and, again protected from direct light, plates were incubated at room temperature for 30 minutes. Following another round of 4 times washing with 350 μl per well of TBS-T (Carl Roth, Germany) on a 96-head plate washer (Tecan Group, Switzerland) and careful removal of all buffer traces after the fourth cycle, 100 μl of AttoPhos substrate solution (Promega, USA) was added for incubation in the dark at room temperature for 1 hour. Using an infinite M1000 PRO (Tecan Group, Switzerland) microplate reader, the fluorescence of each well was collected at an excitation wavelength of 435 nm and an emission wavelength of 555 nm.
The delta between Buffer stimulated and Buffer unstimulated was defined 100% inhibition.

## CNC(=O)[C@H](Cc1ccccc1)NC(=O)[C@H](CC(C)C)[C@H](CSc1cccs1)C(=O)NO [Batimastat, reference compound]
2 hours
  inhibition of LPS-induced release of TNFα from human PBMCs: 114.9%
2 h
  inhibition at 10 µM: 99.5%

## CCC(=O)NCCc1c(/C=C2/C(=O)NC(=O)N(c3ccc(C)cc3C)C2=O)[nH]c2ccccc12 [Compound 1]
2 hours
  inhibition at 10 µM: 99.5%

## CCOC(=O)c1ccc(Nc2nc3nonc3n3nnnc23)cc1 [Compound 2]
2 h
  inhibition at 10 µM: 98.6%

## O=C(c1c(Cl)cccc1Cl)N1CCC(Cc2ccc(F)cc2)CC1 [Compound 3]
2 h
  inhibition at 10 µM: 76.3%

## Cc1c(C(=O)NCc2cccs2)sc(=O)n1Cc1ccccc1 [Compound 4]
2 h
  inhibition at 10 µM: 42%

## Cc1c(C(=O)NCc2cccs2)sc(=O)n1Cc1ccccc1F [Compound 5]
2 h
  inhibition at 10 µM: 51.3%

## Cc1c(C(=O)NCc2ccco2)sc(=O)n1Cc1ccccc1F [Compound 7]
2 h
  inhibition at 10 µM: 72.5%
